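These data come from cells grown in 96-well plates and exposed to compound for 48 hours at five concentrations. GI50: concentration for 50% inhibition of growth.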 Calls of active or inactive are those of the source. Cut-off read from the data, not from the text of the source: active = GI50 up to about 1.1 µM and inactive = higher.
How the values were obtained:
Assay in all cases: NCI tumour cell line growth inhibition, 48 h
[1] = test system: A498
[2] = test system: TK-10
[3] = test system: SK-OV-3
[4] = test system: OVCAR-4
[5] = test system: NCI-H23
[6] = test system: 786-0
[7] = test system: SN12C
[8] = test system: NCI-H522
[9] = test system: LOX IMVI
[10] = test system: M14
[11] = test system: IGROV-1
[12] = test system: RXF 393
[13] = test system: MOLT-4
[14] = test system: OVCAR-3
[15] = test system: HCC 2998
[16] = test system: K562
[17] = test system: U-251
[18] = test system: NCI-H460
[19] = test system: KM-20L2
[20] = test system: SF-295
[21] = test system: UACC-62
[22] = test system: SK-MEL-5
[23] = test system: RXF 631
[24] = test system: UO-31
[25] = test system: SNB-75
[26] = test system: HOP-18
[27] = test system: A549
[28] = test system: HT-29
[29] = test system: OVCAR-8
[30] = test system: SK-MEL-28
[31] = test system: LXFL 529
[32] = test system: Malme-3M
[33] = test system: SNB-19
[34] = test system: DMS-273
[35] = test system: HCT-15
[36] = test system: SK-MEL-2
[37] = test system: EKVX
[38] = test system: NCI-H226
[39] = test system: HOP-92
[40] = test system: OVCAR-5
[41] = test system: RPMI-8226
[42] = test system: UACC-257
[43] = test system: M19-MEL
[44] = test system: CCRF-CEM
[45] = test system: COLO 205
[46] = test system: CAKI-1
[47] = test system: KM12
[48] = test system: DLD-1
[49] = test system: HL-60
[50] = test system: ACHN
[51] = test system: SF-268
[52] = test system: SW-620
[53] = test system: SF-539
[54] = test system: XF498
[55] = test system: HCT-116
[56] = test system: HOP-62
[57] = test system: DMS-114
[58] = test system: SNB-78
[59] = test system: SR

Q: How did the GI50 [1] turn out when O=C(O)CNS(=O)(=O)c1ccc(NC(=O)c2ccc([N+](=O)[O-])cc2)cc1 was run?
A: The GI50 was > 100 µM (inactive).

Q: What about the GI50 [2] of the same compound?
A: Its GI50 is > 100 µM (inactive).

Q: What about the GI50 [3] of the same compound?
A: The GI50 was > 100 µM (inactive).

Q: And the GI50 [4]?
A: Its GI50 is > 100 µM (inactive).

Q: What about the GI50 [5] of the same compound?
A: The GI50 was > 100 µM (inactive).

Q: And the GI50 [6]?
A: Its GI50 is > 100 µM (inactive).

Q: And the GI50 [7]?
A: The GI50 was > 100 µM (inactive).

Q: And the GI50 [8]?
A: The GI50 was 79.6 µM (inactive).

Q: What about the GI50 [9] of the same compound?
A: The GI50 was > 100 µM (inactive).

Q: And the GI50 [10]?
A: The GI50 was > 100 µM (inactive).

Q: What about the GI50 [11] of the same compound?
A: The GI50 was > 100 µM (inactive).

Q: And the GI50 [12]?
A: The GI50 was > 100 µM (inactive).

Q: And the GI50 [13]?
A: Its GI50 is > 100 µM (inactive).

Q: What about the GI50 [14] of the same compound?
A: The GI50 was > 100 µM (inactive).

Q: And the GI50 [15]?
A: The GI50 was > 100 µM (inactive).

Q: What about the GI50 [16] of the same compound?
A: The GI50 was > 100 µM (inactive).

Q: What about the GI50 [17] of the same compound?
A: Its GI50 is > 100 µM (inactive).

Q: What about the GI50 [18] of the same compound?
A: The GI50 was > 100 µM (inactive).

Q: What about the GI50 [19] of the same compound?
A: Its GI50 is > 100 µM (inactive).

Q: And the GI50 [20]?
A: Its GI50 is > 100 µM (inactive).

Q: What about the GI50 [21] of the same compound?
A: The GI50 was > 100 µM (inactive).

Q: What about the GI50 [22] of the same compound?
A: Its GI50 is > 100 µM (inactive).

Q: What about the GI50 [23] of the same compound?
A: The GI50 was > 100 µM (inactive).

Q: And the GI50 [24]?
A: Its GI50 is > 100 µM (inactive).

Q: And the GI50 [25]?
A: The GI50 was > 100 µM (inactive).

Q: What about the GI50 [26] of the same compound?
A: The GI50 was > 100 µM (inactive).

Q: What about the GI50 [27] of the same compound?
A: The GI50 was > 100 µM (inactive).

Q: What about the GI50 [28] of the same compound?
A: The GI50 was > 100 µM (inactive).

Q: And the GI50 [29]?
A: The GI50 was > 100 µM (inactive).

Q: What about the GI50 [30] of the same compound?
A: The GI50 was > 100 µM (inactive).

Q: What about the GI50 [31] of the same compound?
A: The GI50 was > 100 µM (inactive).

Q: And the GI50 [32]?
A: Its GI50 is > 100 µM (inactive).

Q: And the GI50 [33]?
A: The GI50 was > 100 µM (inactive).

Q: What about the GI50 [34] of the same compound?
A: The GI50 was > 100 µM (inactive).

Q: What about the GI50 [35] of the same compound?
A: Its GI50 is > 100 µM.

Q: And the GI50 [36]?
A: The GI50 was > 100 µM (inactive).

Q: And the GI50 [37]?
A: Its GI50 is > 100 µM (inactive).

Q: What about the GI50 [38] of the same compound?
A: Its GI50 is > 100 µM (inactive).

Q: What about the GI50 [39] of the same compound?
A: The GI50 was > 100 µM (inactive).

Q: What about the GI50 [40] of the same compound?
A: The GI50 was > 100 µM (inactive).

Q: And the GI50 [41]?
A: Its GI50 is > 100 µM (inactive).

Q: And the GI50 [42]?
A: The GI50 was > 100 µM (inactive).

Q: And the GI50 [43]?
A: Its GI50 is > 100 µM (inactive).

Q: What about the GI50 [44] of the same compound?
A: The GI50 was > 100 µM (inactive).

Q: And the GI50 [45]?
A: Its GI50 is > 100 µM (inactive).

Q: What about the GI50 [46] of the same compound?
A: The GI50 was > 100 µM (inactive).

Q: What about the GI50 [47] of the same compound?
A: Its GI50 is > 100 µM (inactive).

Q: What about the GI50 [48] of the same compound?
A: The GI50 was > 100 µM (inactive).

Q: And the GI50 [49]?
A: Its GI50 is > 100 µM (inactive).

Q: What about the GI50 [50] of the same compound?
A: The GI50 was > 100 µM (inactive).

Q: And the GI50 [51]?
A: The GI50 was > 100 µM (inactive).

Q: What about the GI50 [52] of the same compound?
A: Its GI50 is > 100 µM (inactive).

Q: And the GI50 [53]?
A: Its GI50 is > 100 µM (inactive).

Q: And the GI50 [54]?
A: The GI50 was > 100 µM (inactive).

Q: What does the source list for C[C@]12CCC3[C@@H](CC[C@@H]4c5nonc5CC[C@]34C)C1C/C(=N/O)C2=O (some centres not stated)?
A: GI50 [55]: > 100 µM (inactive); GI50 [1]: > 100 µM (inactive); GI50 [2]: 51.1 µM (inactive); GI50 [3]: 38.8 µM (inactive); GI50 [4]: 76 µM (inactive); GI50 [5]: > 100 µM (inactive); GI50 [6]: > 100 µM (inactive); GI50 [7]: > 100 µM (inactive); GI50 [8]: 24.6 µM (inactive); GI50 [9]: 11.2 µM (inactive); GI50 [10]: 63.5 µM (inactive); GI50 [11]: > 100 µM (inactive); GI50 [12]: 14.1 µM (inactive); GI50 [13]: 59.7 µM (inactive); GI50 [14]: 39.7 µM (inactive); GI50 [16]: > 100 µM (inactive); GI50 [17]: > 100 µM (inactive); GI50 [18]: > 100 µM (inactive); GI50 [19]: > 100 µM (inactive); GI50 [20]: 52.2 µM (inactive); GI50 [21]: 63.7 µM (inactive); GI50 [22]: > 100 µM (inactive); GI50 [23]: > 100 µM (inactive); GI50 [24]: 5.41 µM (inactive); GI50 [25]: 0.0885 µM (active); GI50 [26]: > 100 µM (inactive); GI50 [27]: > 100 µM (inactive); GI50 [56]: > 100 µM (inactive); GI50 [28]: > 100 µM (inactive); GI50 [29]: > 100 µM (inactive); GI50 [30]: 27.1 µM (inactive); GI50 [31]: 18.6 µM (inactive); GI50 [32]: > 100 µM (inactive); GI50 [33]: > 100 µM (inactive); GI50 [34]: > 100 µM (inactive); GI50 [35]: > 100 µM; GI50 [36]: 1.53 µM (inactive); GI50 [37]: 52.5 µM (inactive); GI50 [38]: > 100 µM (inactive); GI50 [39]: 46.5 µM (inactive); GI50 [40]: > 100 µM (inactive); GI50 [41]: 9.48 µM (inactive); GI50 [42]: > 100 µM (inactive); GI50 [43]: > 100 µM (inactive); GI50 [57]: > 100 µM (inactive); GI50 [58]: > 100 µM (inactive); GI50 [44]: 56.5 µM (inactive); GI50 [45]: > 100 µM (inactive); GI50 [46]: 4.34 µM (inactive); GI50 [47]: > 100 µM (inactive); GI50 [49]: 2.12 µM (inactive); GI50 [50]: 41 µM (inactive); GI50 [51]: 11.2 µM (inactive); GI50 [52]: > 100 µM (inactive); GI50 [53]: 71 µM (inactive); GI50 [54]: 11.5 µM (inactive)

Q: Which results are given for Cc1cc2c(ccc3c(C)cc(=O)oc32)o1?
A: GI50 [55]: > 100 µM (inactive); GI50 [2]: > 100 µM (inactive); GI50 [3]: > 100 µM (inactive); GI50 [4]: > 100 µM (inactive); GI50 [5]: > 100 µM (inactive); GI50 [6]: > 100 µM (inactive); GI50 [7]: > 100 µM (inactive); GI50 [8]: > 83.6 µM (inactive); GI50 [9]: > 100 µM (inactive); GI50 [10]: > 100 µM (inactive); GI50 [11]: > 100 µM (inactive); GI50 [12]: 78.3 µM (inactive); GI50 [13]: > 100 µM (inactive); GI50 [14]: > 100 µM (inactive); GI50 [15]: > 100 µM (inactive); GI50 [16]: > 100 µM (inactive); GI50 [17]: > 100 µM (inactive); GI50 [18]: > 100 µM (inactive); GI50 [19]: > 100 µM (inactive); GI50 [20]: > 100 µM (inactive); GI50 [21]: > 100 µM (inactive); GI50 [22]: > 100 µM (inactive); GI50 [23]: > 100 µM (inactive); GI50 [24]: 98.9 µM (inactive); GI50 [25]: 35.6 µM (inactive); GI50 [26]: > 55.6 µM (inactive); GI50 [27]: > 100 µM (inactive); GI50 [56]: > 100 µM (inactive); GI50 [28]: > 100 µM (inactive); GI50 [29]: > 100 µM (inactive); GI50 [30]: > 100 µM (inactive); GI50 [31]: > 100 µM (inactive); GI50 [32]: > 100 µM (inactive); GI50 [33]: > 100 µM (inactive); GI50 [34]: > 100 µM (inactive); GI50 [35]: > 100 µM; GI50 [36]: > 100 µM (inactive); GI50 [37]: > 100 µM (inactive); GI50 [38]: > 100 µM (inactive); GI50 [39]: > 100 µM (inactive); GI50 [59]: > 100 µM (inactive); GI50 [40]: > 100 µM (inactive); GI50 [41]: > 100 µM (inactive); GI50 [42]: > 100 µM (inactive); GI50 [43]: > 100 µM (inactive); GI50 [57]: > 100 µM (inactive); GI50 [58]: > 58.5 µM (inactive); GI50 [44]: > 100 µM (inactive); GI50 [45]: > 100 µM (inactive); GI50 [46]: > 100 µM (inactive); GI50 [47]: > 100 µM (inactive); GI50 [48]: > 100 µM (inactive); GI50 [50]: > 100 µM (inactive); GI50 [51]: > 81.3 µM (inactive); GI50 [52]: > 100 µM (inactive); GI50 [53]: > 100 µM (inactive); GI50 [54]: 40.6 µM (inactive)

From ChEMBL document CHEMBL1201862, “PubChem BioAssay data set” (2004)
